One test addresses T1, wildtype human PAI-1 (Homo sapiens, UniProt P05121).
T1 construct: purchased Molecular Innovations Lot# HWT-804
The experiment in a line: PAI-1/uPA assay (residual uPA activity, fluorescent substrate SpectroFluor). It is filed as biochemical. As to conditions: within the concentration range tested. The method in brief: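 Wildtype human PAI-1 (6 nM) preincubated 15-20 min at RT with compound (10 nM to 100 μM final) in HEPES buffer pH 6.6, then with uPA (8 nM, HMW) 5 min. SpectroFluor (0.1 mM) cleavage followed 30 min at 37 °C (ex 360/em 440 nm); PAI-1 activity expressed as % of untreated PAI-1.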

Test [1] has as its system 60 different human cancer cell lines. The experiment in a line: NCI in vitro anticancer screen (whole panel). In kind it is cell-based. As to conditions: NCI screen, 48 h.
In a further test the test system is HL-60(TB). Briefly: NCI anticancer screen, HL-60(TB). It is filed as cell-based, human. As to conditions: Homo sapiens, Leukemia, 48 h.
Another test has as its system MOLT-4. The experiment in a line: NCI anticancer screen, MOLT-4. In kind it is cell-based, human. Particulars: Homo sapiens; MOLT-4, Leukemia, 48 h.
Another test deals with SR. The experiment in a line: NCI anticancer screen, SR. It is filed as cell-based, human. Particulars: Homo sapiens, Leukemia, 48 h.
The test system of another test is NCI-H226. The experiment in a line: NCI anticancer screen, NCI-H226. It is filed as cell-based, human. As to conditions: Homo sapiens; NCI-H226, Non-Small Cell Lung, 48 h.
The test system of the next test is NCI-H322M. The experiment in a line: NCI anticancer screen, NCI-H322M. In kind it is cell-based, human. As to conditions: Homo sapiens, Non-Small Cell Lung, 48 h.
The next test has as its system NCI-H460. Briefly: NCI anticancer screen, NCI-H460. It is filed as cell-based, human. As to conditions: Homo sapiens; NCI-H460, Non-Small Cell Lung, 48 h.
The test system of a further test is HCC-2998. The experiment in a line: NCI anticancer screen, HCC-2998. It is filed as cell-based, human. As to conditions: Homo sapiens; HCC-2998, Colon, 48 h.
The next test deals with HCT-116. Briefly: NCI anticancer screen, HCT-116. It is filed as cell-based, human. Particulars: Homo sapiens; HCT-116, Colon, 48 h.
The next test has as its system SW-620. The experiment in a line: NCI anticancer screen, SW-620. It is filed as cell-based, human. Particulars: Homo sapiens; SW-620, Colon, 48 h.
A further test relates to SNB-75. Briefly: NCI anticancer screen, SNB-75. Particulars: Homo sapiens; SNB-75, CNS, 48 h. It is filed as cell-based, human.
The subject of another test is U251. The experiment in a line: NCI anticancer screen, U251. In kind it is cell-based, human. As to conditions: Homo sapiens, U-251; U251, CNS, 48 h.
The next test has as its system LOX IMVI. Briefly: NCI anticancer screen, LOX IMVI. It is filed as cell-based, human. As to conditions: Homo sapiens, Melanoma, 48 h.
The next test concerns MALME-3M. Briefly: NCI anticancer screen, MALME-3M. In kind it is cell-based, human. Particulars: Homo sapiens, Melanoma, 48 h.
Another test concerns SK-MEL-2. Briefly: NCI anticancer screen, SK-MEL-2. It is filed as cell-based, human. As to conditions: Homo sapiens; SK-MEL-2, Melanoma, 48 h.
Another test deals with UACC-257. Briefly: NCI anticancer screen, UACC-257. It is filed as cell-based, human. As to conditions: Homo sapiens; UACC-257, Melanoma, 48 h.
The next test concerns SK-OV-3. The experiment in a line: NCI anticancer screen, SK-OV-3. Particulars: Homo sapiens; SK-OV-3, Ovarian, 48 h. It is filed as cell-based, human.
The test system of a further test is ACHN. Briefly: NCI anticancer screen, ACHN. It is filed as cell-based, human. As to conditions: Homo sapiens, Renal, 48 h.
Another test deals with UO-31. The experiment in a line: NCI anticancer screen, UO-31. It is filed as cell-based, human. As to conditions: Homo sapiens; UO-31, Renal, 48 h.
A further test has as its system PC-3. Briefly: NCI anticancer screen, PC-3. It is filed as cell-based, human. Particulars: Homo sapiens; PC-3, Prostate, 48 h.
In another test the test system is NCI/ADR-RES. The experiment in a line: NCI anticancer screen, NCI/ADR-RES. In kind it is cell-based, human. As to conditions: Homo sapiens, Breast, 48 h.
The next test relates to MDA-MB-435. The experiment in a line: NCI anticancer screen, MDA-MB-435. In kind it is cell-based, human. Particulars: Homo sapiens; MDA-MB-435, Breast, 48 h.

The source of these data is patent US20080280920A1, “Plasminogen Activator Inhibitor-1 Inhibitors” (priority 2005, published 2008).

A word on the GI50: it is the concentration giving 50% growth inhibition. A lower GI50 goes with greater sensitivity of the cells.

T1 sequence (P05121 24-402): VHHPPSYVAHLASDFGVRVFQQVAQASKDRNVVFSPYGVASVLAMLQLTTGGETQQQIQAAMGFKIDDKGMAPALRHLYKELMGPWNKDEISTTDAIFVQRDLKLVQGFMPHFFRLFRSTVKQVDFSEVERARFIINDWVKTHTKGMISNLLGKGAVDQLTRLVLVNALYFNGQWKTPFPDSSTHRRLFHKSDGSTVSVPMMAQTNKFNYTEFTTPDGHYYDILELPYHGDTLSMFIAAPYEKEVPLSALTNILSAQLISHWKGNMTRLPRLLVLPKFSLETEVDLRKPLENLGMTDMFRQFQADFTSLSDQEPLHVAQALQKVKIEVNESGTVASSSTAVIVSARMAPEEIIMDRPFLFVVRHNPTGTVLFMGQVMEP

With `COc1cc(CNc2ccc(C(=O)OC(C)(C)C)cc2)cc(CN2CCN(c3ccccn3)CC2)c1O` [Compound Q012145T], at wildtype human PAI-1, the “Conc. of compound required for PAI-1 inhibition (result in words)” value is “No inhibition”. Also, in test [1], the “growth and proliferation of human primary cancer cell-lines (in words)” value is “inhibited growth and proliferation”. The GI50 in the test on HL-60(TB) was 12.4 µM; in the test on MOLT-4, 13 µM; in the test on SR it was 8.3 µM; with NCI-H226 it was more than 100 µM; with NCI-H322M, more than 100 µM; in the test with NCI-H460 it was 21.9 µM. The GI50 is more than 100 µM in the test with HCC-2998; 15.2 µM in the test with HCT-116; 63.7 µM in the test with SW-620; more than 100 µM with SNB-75; 75.9 µM in the test with U251; 60.4 µM in the test on LOX IMVI. Moreover, the GI50 in the test on MALME-3M was 34.6 µM; in the test on SK-MEL-2, more than 100 µM; with UACC-257, 33 µM; in the test with SK-OV-3 it was more than 100 µM; in the test on ACHN it was more than 100 µM; in the test with UO-31, 67.2 µM. In addition, the values for the GI50 in the test with PC-3, with NCI/ADR-RES and with MDA-MB-435 were 23.5 µM, 41.1 µM and 60.1 µM, respectively.
